In patent US20240101548A1, “HYDROXAMATE COMPOUND, PREPARATION METHOD THEREFOR AND APPLICATION THEREOF” (SHENZHEN CHIPSCREEN BIOSCIENCES CO., LTD., priority 2020, published 2024):
pIC50: −log10 of the molar value. Where two headings read alike, the source gives them in different places.

Key:
[1] = system: IL-10-induced JAK1/TYK2 signal pathway; assay: IL-10-induced JAK1/TYK2 signal pathway STAT3-Luc reporter gene assay in U2OS cells; assay type: cell-based, human; details: Homo sapiens, read-out: Half inhibition dose (IC50) on IL-10-induced JAK1/TYK2 signal pathway
How it was run: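 Luciferase read-out (560 nm) corrected by GFP signal (Ex485/Em520) gives IL-10 pathway activity, and IC50 is derived from inhibition rates. Cells were U2OS transfected with IL-10R1 plus STAT3-Luc reporter, pretreated 6 h with 0.1–300 nM compound, then stimulated 24 h with IL-10 at 10 ng/mL.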

TYK2 JH2 domain = TYK2 JH2 domain (Homo sapiens (Human), UniProt P29597); assay: TYK2 JH2 domain FRET tracer assay; assay type: binding; details: FRET 665/615 nm; read-out: Inhibition activity IC50 on TYK2 JH2 domain
Procedure: Compound of the present invention formulated into different concentrations (series 3 times dilutions, started from 60 μM, 11 concentrations in total) was added to 384-well plate, followed by 5 μL of enzyme (i.e., TYK2 JH2 domain), Tb antibody (Cisbio) and tracer. The mixture was incubated at 25° C. for 60 min and left at 4° C. overnight.

[2] = system: INF-α-induced pSTAT5 in human PBMC; assay: INF-α-induced pSTAT5 in human PBMC (FACS, CD3 positive cells); assay type: cell-based; details: Homo sapiens, PBMC, IFN-α 30 ng/ml, read-out: Inhibition activity IC50 on INF-α-induced pSTAT5 in human PBMC
Procedure: hPBMC (available from Shanghai AoNeng Biotechnology Co., Ltd.) was inoculated in 96-well plate, added with compound of the present invention (at concentrations of 40 nM and 200 nM), incubated for 60 min (compound in concentrations of 2 nM, 10 nM respectively during the incubation); added with 30 ng/ml of stimulating factor IFN-α (BioLegend) together with anti-CD3 antibody (Biolegend) and then continued to be incubated for 30 min. After the incubation, each well was added with 1 mL of fixing solution (BD Biosciences), the obtained mixture was incubated for 10 min followed by centrifugation, added with 400 μL/well of Perm III (BD Biosciences), followed by further incubation at 4° C. for 30 min. The obtained mixture was added with mouse anti-human pSTAT5 antibody (Alexa Fluor® 647 Conjugate), followed by incubation at room temperature for 40 min. Fluorescence intensity of pSTAT5 in CD3 positive cells was detected by FACS.
Inhibition rate at individual compound concentration was calculated with the following formula:
Inhibition rate=(MFI value(IFN-α-stimulated control)−MI value(2/10 nM compound treated group)/MFI value(IFN-α-stimulated control)[…]
wherein: MFI value meant fluorescence intensity value; IFN-α-stimulated control meant control group which was operated similarly to the experimental groups but no compound of the present invention was added.

[3] = U2OS, U2OS cells, STAT3-Luc reporter, IL-10 10 ng/mL
[4] = U2OS cells, STAT3-Luc reporter, IL-10 10 ng/mL

TYK2 JH2 domain, sequence (P29597 589-875): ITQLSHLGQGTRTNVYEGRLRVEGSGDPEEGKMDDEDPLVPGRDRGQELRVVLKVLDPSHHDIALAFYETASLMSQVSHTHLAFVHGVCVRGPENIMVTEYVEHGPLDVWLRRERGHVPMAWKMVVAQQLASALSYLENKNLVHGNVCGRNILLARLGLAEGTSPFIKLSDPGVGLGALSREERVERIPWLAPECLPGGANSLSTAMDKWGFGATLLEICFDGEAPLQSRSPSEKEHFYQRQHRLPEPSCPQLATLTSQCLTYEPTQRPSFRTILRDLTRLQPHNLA

CCONC(=O)c1cnc(NC(=O)C2CC2)cc1Nc1cccc(-c2ncc(Cl)cn2)c1OC [Example 219, 4-((3-(5-chloropyrimidin-2-yl)-2-methoxyphenyl)amino)-6-(cyclopropylcarboxamido)-N-ethoxy nicotinamide]
pIC50 [1, 3]: 8.96 | pIC50 (TYK2 JH2 domain): 9.89 | pIC50 [2]: > 8.70

CCONC(=O)c1cnc(Nc2cc(C)nc(C)n2)cc1Nc1cc(F)cc(-c2ncccn2)c1OC [Example 215, 6-((2,6-dimethylpyrimidin-4-yl)amino)-N-ethoxy-4-((5-fluoro-2-methoxy-3-(pyrimidin-2-yl)phenyl)amino)nicotinamide]
pIC50 [1, 3]: 9.99 | pIC50 (TYK2 JH2 domain): 10.15 | pIC50 [2]: > 8.70

CCONC(=O)c1cnc(Nc2cc(C)nc(C)n2)cc1Nc1ccc(C(F)(F)F)cc1N(C)S(C)(=O)=O [Example 202, 6-((2,6-dimethylpyrimidin-4-yl)amino)-N-ethoxy-4-((2-(N-methylmethanesulfonamido)-4-(trifluoromethyl)phenyl)amino)nicotinamide]
pIC50 [1, 4]: 9.39 | pIC50 (TYK2 JH2 domain): 10.22 | pIC50 [2]: > 8.70

CCONC(=O)c1cnc(Nc2cc(C)nc(C)n2)cc1Nc1cccc(-c2ncccn2)c1OC [Example 212]
pIC50 ([1]; U2OS): 9.57 | pIC50 (TYK2 JH2 domain): 10.30 | pIC50 [2]: > 8.70

CCONC(=O)c1cnc(Nc2cc(C)nc(C)n2)cc1Nc1cccc(-c2ncc(C)cn2)c1OC [Example 238, 6-((2,6-dimethylpyrimidin-4-yl)amino)-N-ethoxy-4-((2-methoxy-3-(5-methylpyrimidin-2-yl)phenyl)amino)nicotinamide]
pIC50 [1, 4]: 9.77 | pIC50 [2]: > 8.70
